Measurements reported in publication PMC10604720, “Unraveling the Mechanism of Epichaperome Modulation by Zelavespib: Biochemical Insights on Target Occupancy and Extended Residence Time at the Site of Action” (Biomedicines, 2023).

Assays:
[1] = Biodistribution / PET pharmacokinetics of [124I]-zelavespib in MDA-MB-468 tumor-bearing mice (data of ref 32, refitted to exponential decay); assay type: in vivo, mouse
Procedure: Iodine-124 is a ‘non-residualizing’ isotope (i.e., free iodine-124 washes out from cells), and therefore, data derived from positron emission tomography imaging of MDA-MB-468-bearing mice that were administered a tracer amount of [^124I]-PU-AD can be used to determine real-time zelavespib concentrations delivered to tumors. Because positron emission tomography provides information on radioactivity and not molar concentrations, radioactivity data from Pillarsetty et al. were transformed into tumor concentrations to calculate the time-dependent zelavespib concentrations in tumors for an administered dose of 50 mg/kg. The drug concentration (in μM) in the tumor water space, [Drugtumor], at the time t post-administration is therefore: [Drugtumor]t=Drugdose·[Atumor]t/100%·1/W·1×10^6/MW µM where Drugdose is the administered drug dose (in mg), [Atumor]t is the activity concentration (in % injected dose per milliliter, %ID/mL) of the surrogate radiotracer, W is the water space of the tissue (in mL/g), MW is the molecular weight of the drug (i.e., zelavespib), and the factor 1 × 10^6 converts the concentration to μM. For the drug zelavespib and the surrogate radiotracer […] co-injected in a ratio of ~1 to 10,000, the drug itself is essentially the only significant form of the drug–surrogate combination in the tumor. Thus, for a co-administered dose of zelavespib (zelavespibdose in mg) and a tracer amount of [^124I]-PU-AD, the drug concentration in the tumor water space (using an average water space, W = 0.8 mL/g, and the molecular weight MW = 512) is: [Zelavespibtumor]t=Zelavespibdose · [Atumor]t/100%·2.44×10^3 µM
To study the zelavespib–epichaperome interaction in vivo, we selected, for simplicity, an epichaperome-positive tumor model (e.g., subcutaneously xenografted MDA-MB-468 tumors in mice). Using whole-body PET imaging after the injection of ^124I-labeled zelavespib, Pillarsetty et al. reported drug presence in MDA-MB-468 tumors up to 120 h post-single dose administration (~T1/2 = 60 h). Conversely, zelavespib was no longer observed in non-disease, non-metabolizing tissues after ~8 h, clearing rapidly from plasma, paralleled by a similar rapid clearance from normal tissues (i.e., chaperone-positive but epichaperome-negative). In these tumors, a clear relationship between tumor retention, pharmacodynamic effects, and anti-tumor activity was observed, supporting the notion that zelavespib was in residence with its target over the time it resided in these tumors.
These values are very much in agreement with those reported for zelavespib in human patients. […] Contrasting plasma and normal tissues and organs, the distribution of zelavespib in tumors was best fitted using a bi-exponential model. […] The first phase thus reflects the clearance of systemic agent, while the second is attributable to specific tumor retention.
Figure 1 Biodistribution of zelavespib in MDA-MB-468 tumor-bearing mice. (a) Biodistribution of [^124I]-Zelavespib in MDA-MB-468 tumors, organs, tissues, and plasma as per ref. [32]. Data are presented as means ± s.d., five mice per time point. Curves for blood, lung, heart, muscle, bone, and brain were fitted using a one-phase decay equation, and kinetics of zelavespib clearance were determined. Tumor curve was fitted to a two-phase exponential decay. k, kfast, and kslow are the rate constants. Half-life (T1/2) is computed as ln(2)/k. […] (b) Illustrative schematic showing the distinct binding kinetics of zelavespib to epichaperomes (slow off-rate) and to chaperone assemblies (fast off-rate). The tumor pharmacokinetics profile recorded in the Phase 2 interval may represent a direct reflection of the in vivo kinetics of target–drug unbinding. koff, kinetic rate constant for dissociation of an epichaperome-zelavespib assembly. Rt, retention time. […]

[2] = set-up: method as in PMID 31668946; settings: whole-body PET imaging, mice; cited from earlier work
[3] = MDA-MB-468 tumor-bearing mice, one-phase exponential decay fit of data of ref 32
[4] = MDA-MB-468 tumor, bi-exponential fit, Phase 1: 0 to 8 h, data of ref 32
[5] = MDA-MB-468 tumor, bi-exponential fit, slow terminal clearance phase, data of ref 32
[6] = one-phase decay fit of data of ref 32

SMILES: CC(C)NCCCn1c(Sc2cc3c(cc2[124I])OCO3)nc2c(N)ncnc21 [[^124I]-zelavespib]
- half-life (T1/2), bone [1, 3]: 2.844 h
- half-life (T1/2), brain [1, 3]: 2.655 h
- half-life (T1/2), heart [1, 3]: 3.102 h
- half-life (T1/2), lung [1, 3]: 3.367 h
- half-life (T1/2), muscle [1, 3]: 5.034 h
- half-life (T1/2), plasma/blood [1, 3]: 4.380 h
- tumor Phase 1 T1/2 [1, 4]: 2.876 h
- tumor Phase 1 rate constant k (kfast) [1, 4]: 0.2410 h⁻¹
- tumor Phase 2 T1/2 [1, 5]: 46.80 h
- tumor Phase 2 rate constant k (kslow) [1, 5]: 0.0148 h⁻¹
- clearance rate constant k, blood [1, 6]: 0.1583 h⁻¹
- clearance rate constant k, bone [1, 6]: 0.2437 h⁻¹
- clearance rate constant k, brain [1, 6]: 0.2611 h⁻¹
- clearance rate constant k, heart [1, 6]: 0.2234 h⁻¹
- clearance rate constant k, lung [1, 6]: 0.2059 h⁻¹
- clearance rate constant k, muscle [1, 6]: 0.1377 h⁻¹
- T1/2 in MDA-MB-468 tumors [2]: ~60 h
- drug presence in MDA-MB-468 tumors, time post-single dose administration [2]: up to 120 h
